Source: patent US20010047099A1, “4-aminopicolinates and their use as herbicides” (priority 2000, published 2001)
Like-named read-outs stand apart in the source and are kept apart here.

Key:
wild oats (Avena fatua) = test: Preemergence herbicidal activity; type: in vivo; settings: pre-emergence, 504 h
In short: (§1)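 Pre-emergence soil spray; loam:sand 70:30, pH ~8.1. Vehicle: acetone/DMSO 97:3 stock diluted in water + 0.1% Tween 155; controls sprayed with aqueous mixture. Greenhouse 23-29° C day/22-28° C night, 15 hr photoperiod. Visual % injury vs untreated at 3 wk.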

[1] = system: wild poinsettia (Euphorbia heterophylla); test: Preemergence herbicidal activity; type: in vivo; settings: pre-emergence, 504 h
In short: as §1

[2] = system: barnyardgrass (Echinochloa crus-galli); test: Preemergence herbicidal activity; type: in vivo; settings: pre-emergence, 504 h
In short: as §1

[3] = system: giant foxtail (Setaria faberi); test: Preemergence herbicidal activity; type: in vivo; settings: pre-emergence, 504 h
In short: as §1

[4] = system: cocklebur (Xanthium strumarium); test: Preemergence herbicidal activity; type: in vivo; settings: pre-emergence, 504 h
In short: as §1

[5] = system: Canada thistle (Cirsium arvense); test: Range & Pasture Crop Testing (postemergence track sprayer); type: in vivo; settings: for GR80 CIRAR: Table 10, clover pasture, postemergence
In short: (§2)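 Postemergence track-sprayer application at 187 L/ha, compounds formulated in 97:3 acetone:DMSO with 0.25% X-77, five rates (X serially diluted to 1/16×). Visual percent control (0–100 scale, burn down) rated 3 weeks after treatment; GR50/GR80 derived by probit analysis.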

[6] = system: field bindweed (Convolvulus arvensis); test: as above; type: in vivo; settings: for GR80 CONAR: Table 10, clover pasture, postemergence
In short: as §2

[7] = Table 7, rate 35 g/Ha, after 3 weeks, read-out: PREEMERGENCE HERBICIDAL ACTIVITY % CONTROL AVEFA
[8] = Table 7, rate 35 g/Ha, after 3 weeks, read-out: PREEMERGENCE HERBICIDAL ACTIVITY % CONTROL EPHHL
[9] = Table 7, rate 35 g/Ha, after 3 weeks, read-out: PREEMERGENCE HERBICIDAL ACTIVITY % CONTROL ECHCG
[10] = Table 7, rate 35 g/Ha, after 3 weeks, read-out: PREEMERGENCE HERBICIDAL ACTIVITY % CONTROL SETFA
[11] = Table 7, rate 35 g/Ha, after 3 weeks, read-out: PREEMERGENCE HERBICIDAL ACTIVITY % CONTROL XANST

Row | SMILES | melting point | inhibition at 35 g/ha (wild oats (Avena fatua); [7]) [%] | inhibition at 35 g/ha [1, 8] [%] | inhibition at 35 g/ha [2, 9] [%] | inhibition at 35 g/ha [3, 10] [%] | inhibition at 35 g/ha [4, 11] [%] | GR80 CIRAR [5] [g/ha] | GR80 CONAR [6] [g/ha] | also measured
1 | Nc1cc(Br)nc(C(=O)O)c1Cl [Compound 14, 4-Amino-6-bromo-3-chloropyridine-2-carboxylic acid] | 182 to 183 °C | 40 | 70 | 40 | 98 | 100 | – | – | –
2 | COC(=O)c1nc(Cl)cc(N)c1Cl [Compound 3, methyl 4-amino-3,6-dichloropyridine-2-carboxylate] | 134 to 135 °C | 10 | 20 | 20 | 40 | 90 | <17.5 | 127.7 | Post-emergent Evaluation - % control CIRAR ([5]; Table 9, rate 70 g/Ha, 3 weeks after treatment): 90%
3 | Nc1cc(Cl)nc(C(=O)O)c1Cl [Compound 1, 4-Amino-3,6-dichloropyridine-2-carboxylic acid] | – | – | – | – | – | – | – | – | Post-emergent GR80 CIRAR ([5]; Table 8, salts of Compound 1, 3 week evaluation): 47 g/Ha; Post-emergent GR80 CONAR ([6]; Table 8, salts of Compound 1, dose for 80 percent control): 59 g/Ha; inhibition at 35 g/ha (wild oats (Avena fatua); read-out: PR[…] % CONTROL AVEFA, Table 7, rate 35 g/Ha, after 3 weeks): 37%; inhibition at 35 g/ha ([1]; read-out: PR[…] % CONTROL EPHHL, Table 7, rate 35 g/Ha, after 3 weeks): 62%; inhibition at 35 g/ha ([2]; read-out: PR[…] % CONTROL ECHCG, Table 7, rate 35 g/Ha, after 3 weeks): 17%; inhibition at 35 g/ha ([3]; read-out: PR[…] % CONTROL SETFA, Table 7, rate 35 g/Ha, after 3 weeks): 40%; inhibition at 35 g/ha ([4]; read-out: PR[…] % CONTROL XANST, Table 7, rate 35 g/Ha, after 3 weeks): 99%

Further lines, with some results ahead:

Row | melting point | SMILES | inhibition at 35 g/ha (wild oats (Avena fatua); [7]) [%] | inhibition at 35 g/ha [1, 8] [%] | inhibition at 35 g/ha [2, 9] [%] | inhibition at 35 g/ha [3, 10] [%] | inhibition at 35 g/ha [4, 11] [%] | GR80 CIRAR [5] [g/ha] | GR80 CONAR [6] [g/ha] | also measured
4 | 154 to 156 °C | COc1c(C(=O)O)nc(Br)c(Cl)c1N [Compound 42, 4-Amino-6-bromo-5-chloro-3-methoxypyridine-2-carboxylic acid] | 30 | 40 | 30 | 30 | 98 | – | – | –
5 | 98 to 99 °C | CCOC(=O)c1nc(Cl)cc(N)c1Cl [Compound 4, ethyl 4-amino-3,6-dichloropyridine-2-carboxylate] | – | – | – | – | – | <17.5 | 59 | –
6 | 214 °C (dec.) | Nc1c(F)c(Cl)nc(C(=O)O)c1Cl [Compound 19, 4-Amino-3,6-dichloro-5-fluoropyridine-2-carboxylic acid] | – | – | – | – | – | – | – | –
